Non-standard residues stand in square brackets, D forms with d. No end group written: not given here. pGlu = O=C1CC[C@@H](C(=O)O)N1
Columns and labels:
[1] = Cr:peptide binding ratio after exposure to 10 equivalents of Cr^3+ and G-10 size exclusion chromatography; conditions: 0.1 mol/L hepes pH 7.4, overnight at 4° C., G-10 separation
Source text: The intersection points in the isotherms allow the number of tightly binding ions to be estimated. For bovine apoLMWCr, the chromium:oligopeptide ratio at the intersection point is 3.6, which is very close to the average amount of chromium bound to isolated bovine LMWCr, which is 3.5. Titration of bovine LMWCr with Cr^3+ has previously shown that four Cr^3+ ions are required to restore bioactivity. For the synthetic peptides, the intersection points occurred at Cr:peptide ratios of approximately 2, 2, and 4 for EDGEECDCGE (SEQ ID NO: 41), DGEECDCGEE (SEQ ID NO: 42) and pEEEEGDD (SEQ ID NO: 1) (FIG. 6), respectively. This is consistent with the Crpeptides binding ratios found after exposing the peptides to solutions of 10 equivalents of Cr^3+ (CrCl3.6H2O in 0.1 mol/L hepes buffer, pH 7.4 overnight at 4° C.) and separating the peptides from the excess Cr^3+ by G-10 size exclusion chromatography (EDGEECDCGE (SEQ ID NO: 41): 2.0(±0.3), and DGEECDCGEE (SEQ ID NO: 42): 2.0±0.3). A change in mode from specific coordinate covalent binding to just electrostatic absorption on the peptide surface is proposed. Thus, the inflection point of the isotherm for the peptide pEEEEGDD (SEQ ID NO: 1) implies that it tightly binds four Cr^3+ ions. […] The two visible features are readily assigned to d→d transitions from the Cr^3+ centers. […]

[2] = Chromium binding studies: ultrafiltration equilibrium dialysis with 51CrCl3, Langmuir isotherms and Hill plots; conditions: for Langmuir parameter Bt / Langmuir parameter K: Cr^3+ binding, 0.1 mol/L Hepes pH 7.4, 4° C.; for Co-operativity / Kf (Hill plot binding of formation constant) / n (Hill constant): chromium(III) binding, Hill plot; for chromium:oligopeptide ratio at the intersection point of the Langmuir isotherm (number of tightly binding ions): estimated from Langmuir isotherm
Description: A variation of the equilibrium dialysis method using an ultrafiltration device was utilized to examine the binding of chromium to the synthetic peptides. Aliquots of a mixture of CrCl3 and ^51CrCl3 were combined to generate different concentrations of Cr(III) while maintaining the synthetic peptide in solution at a constant volume. Known amounts (approximately 0.46 μmol) of peptide and 200 mL of 0.1 mol/L Hepes buffer (pH 7.4) were slowly stirred in an Amicon 8400 ultrafiltration unit (with a YC05 membrane) at 4° C. temperature for at least 12 h to achieve equilibration. The ultrafiltration unit was then pressurized, and effluent was collected. The content of free chromic ion in the effluent was determined by gamma counting using a Packard Cobra II auto-gamma counter. Chromium binding experiments were performed in triplicate, and the synthetic peptide used in at least one of the three sets of triplicates was from a different synthesis. As a control for the chromium-binding experiments, the ultrafiltration procedure was performed without peptide to establish the amount of chromium that adhered to the ultrafiltration unit; all experiments were corrected for this background. Linear regression analyses of the Langmuir isotherms and Hill plots were performed using SigmaPlot 11.0. The Cr concentration of solutions of isolated peptides were determined by graphite furnace atomic absorption spectroscopy using a PerkinElmer Analyst 400 atomic absorption spectrometer equipped with an HGA-900 graphite furnace and an AS-800 autosampler using a chromium hollow cathode lamp operating at 10 mA; a spectral bandwidth of 0.8 nm was selected to isolate the light at 353.7 nm. Chromium standard solution obtained from Perkin Elmer (Waltham, Mass.) was utilized to generate a standard curve.
Errors are presented throughout as standard deviations of the triplicate analyses. Doubly deionized H2O was used throughout. Amino acid analyses of samples were performed by the Protein and Separation Analysis Laboratory at Purdue University. Protein concentrations were determined by the fluorescamine method (Davis et al. “Isolation and characterization of a biologically active form of chromium oligopeptide from bovine liver,” Arch Biochem Biophys. 1997; 339:335-343.) Fluorescence measurements were obtained on a Jobin Yvon FluoroMax-3 fluorescence spectrophotometer. Ultraviolet-visible spectra were obtained using a Hewlett-Packard 8451A or a Beckman Coulter DU 800 spectrophotometer.
As chromium binding to the oligopeptide LMWCr is believed to be through only carboxylate residues and the heptapeptide pEEEEGDD (SEQ ID NO: 1) retains all the aspartate and glutamate residues in LMWCr, whether the heptapeptide can bind chromium in a similar fashion to LMWCr was investigated. The binding of chromium to bovine apoLMWCr prepared by the low pH EDTA method (Davis and Vincent), the heptapeptide pEEEEGDD (SEQ ID NO: 1), and two other acidic peptides was probed. […] The number of Cr^3+ ions binding to the peptides was estimated using Langmuir isotherms. For the Langmuir isotherms of Cr^3+ binding to all the synthetic peptides, Cr binding to apoLMWCr can be represented by two intersecting straight lines with different slopes (FIG. 5)). […] Negative values of the Langmuir parameters Bt and K were found for each peptide: apoLMWCr, −2.69 mmol/g and −109 L/mmol, respectively; EDGEECDCGE (SEQ ID NO: 41), −6.97 mmol/g and −354 L/mmol; DGEECDCGEE (SEQ ID NO: 42), −62.9 mmol/g and −9.94 L/mmol; and pEEEEGDD (SEQ ID NO: 1), −0.73 mmol/g and −151 L/mmol.
To further compare the binding properties between the synthetic peptides and apoLMWCr in CrCl3 solution, the method of Hill was applied to establish the degree of cooperativity between the covalent binding sites with the initial low amounts of substrate in solution, assuming covalent binding sites are occupied before surface adsorption occurs. The total number of tight binding sites established using the Langmuir isotherm was utilized. […]

Akt = test: Insulin-stimulated phosphorylation of Akt in cultured myotubes (Western blot); assay type: cell-based; conditions: peptide and/or chromium (1 μM) 1 h, insulin 5 nm
Description: Myotubes were incubated with the peptide and/or chromium (1 μM) for 1 h and stimulated with insulin 5 nm. (A) Representative Western blots of p^308-Akt and Akt, and (B) Densitometric quantitation of the Western blots. Data represent mean±SE (n=3), *p<0.001 versus control **p<0.01 compared to insulin-stimulated glucose uptake (panel A). *p<0.001 versus control ^#p<0.05 compared to insulin-stimulated glucose uptake in untreated cells (panel B).

cultured myotubes = test: Insulin-stimulated 2-[3H]-deoxyglucose uptake in cultured myotubes; assay type: cell-based; conditions: peptide 10 mM and/or chromium 1 h, insulin 50 nM 10 min; 10 mM or 25 mM glucose overnight
Description: Myotubes were incubated with the peptide (10 mM) and/or chromium for 1 h and stimulated with insulin (50 nM) for 10 min, and 2-[^3H]-deoxyglucose uptake was assessed. Data represent mean counts per minute (cpm)/mg protein/30 min±SE (n=3). *p<0.01 compared to basal low glucose conditions. **p<0.01 compared to insulin-stimulated low glucose conditions. ***p<0.001 compared to high glucose conditions.

[3] = Insulin-stimulated glucose uptake in vivo, tail-vein peptide then intraperitoneal glucose; conditions: peptide 5 μmol/kg alone or premixed with equimolar chromium via tail-vein; glucose 2 g/kg intraperitoneally
Description: The peptide (5 μmol/kg) either alone or premixed with equimolar concentrations of chromium were injected via tail-vein, immediately following which glucose (2 g/kg body weight) was administered intraperitoneally (*p<0.05, n=6-8).

Cr:peptide binding ratio [1]	Langmuir parameter Bt [2]	Langmuir parameter K [2]	Co-operativity [2]	Kf (Hill plot binding of formation constant) [2]	n (Hill constant) [2]	chromium:oligopeptide ratio at the intersection point of the Langmuir isotherm (number of tightly binding ions) [2]	Substance	insulin-stimulated phosphorylation of Akt (p308-Akt) (Akt)	insulin-stimulated glucose uptake in cultured myotubes (cultured myotubes)	insulin-stimulated glucose uptake in vivo [3]
2.0(±0.3)	-6.97 mmol/g	-354 L/mmol	Positively co-operative	1.48 × 10^23 (mol/L)^−2	3.64	approximately 2	EDGEECDCGE [synthetic acidic peptide with the same amino acid composition as bovine LMWCr]			
							EEEEGDD	improves insulin-stimulated phosphorylation of Akt	augments insulin-stimulated glucose uptake	augments insulin-stimulated glucose uptake in vivo
	-0.73 mmol/g	-151 L/mmol	Positively co-operative	1.92 × 10^20 (mol/L)^−4	3.82	~4	[pGlu]EEEGDD			
2.0±0.3	-62.9 mmol/g	-9.94 L/mmol	Positively co-operative	1.01 × 10^11 (mol/L)^−2	1.85	approximately 2	DGEECDCGEE [synthetic acidic peptide with the same amino acid composition as bovine LMWCr]			

— US20130330422A1, “METHODS FOR INCREASING INSULIN SENSITIVITY AND TREATING DIABETES WITH A BIOACTIVE CHROMIUM BINDING PEPTIDE” (The Board of Trustees of the University of Alabama, priority 2012, published 2013)
